The results in this text go back to patent publication US6878734B2, “Gastrin and cholecystokinin receptor ligands(II)” (James Black Foundation Limited, priority 2000, dated 2005).

Experiment [1] concerns the target T1, gastrin (CCK2) receptors (Rattus norvegicus, UniProt P30553).
T1 construct: The stomach was excised and flushed with ca. 1 ml of unbuffered physiological saline solution; from tissue; host or cells: isolated whole stomach of immature rats (33-50 g, ca. 21 days old)
T1 sequence (P30553 1-452): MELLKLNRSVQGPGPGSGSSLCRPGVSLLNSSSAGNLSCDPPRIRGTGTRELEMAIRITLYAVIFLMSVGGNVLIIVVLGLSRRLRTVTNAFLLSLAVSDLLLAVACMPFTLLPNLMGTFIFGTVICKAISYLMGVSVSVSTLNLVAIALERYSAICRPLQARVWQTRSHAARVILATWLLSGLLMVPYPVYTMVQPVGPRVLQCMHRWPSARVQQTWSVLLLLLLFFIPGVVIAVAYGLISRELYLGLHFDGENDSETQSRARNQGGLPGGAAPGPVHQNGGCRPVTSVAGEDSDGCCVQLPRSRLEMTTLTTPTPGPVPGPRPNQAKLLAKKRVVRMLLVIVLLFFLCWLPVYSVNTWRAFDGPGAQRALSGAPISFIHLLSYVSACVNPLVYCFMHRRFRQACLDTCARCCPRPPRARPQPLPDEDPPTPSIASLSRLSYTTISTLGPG
The experiment in a line: immature rat stomach assay, gastrin (CCK2) antagonist activity. The settings on record: isolated immature rat stomach, antagonism of pentagastrin-stimulated acid secretion, 60 min incubation; for Kb: read-out: Rat stomach pKB (converted). How it is done: The compounds of the examples were tested for gastrin (CCK2) antagonist activity in an immature rat stomach assay. The procedure was as follows:
The oesophagus of immature rats (33-50 g, ca. 21 days old) was ligated at the level of the cardiac sphincter and the duodenal sphincter was cannulated. The stomach was excised and flushed with ca. 1 ml of unbuffered physiological saline solution. The fundus was punctured and cannulated. A further 4-5 ml of unbuffered solution was flushed through the stomach to ensure the preparation was not leaking. The stomach was lowered into a jacketed organ bath containing 40 ml of buffered solution containing 3×10^−8 M 5-methylfurmethide, maintained at 37° and gassed vigorously with 95% O2/5% CO2. The stomach was continuously perfused at a rate of 1 ml min^−1 with unbuffered solution gassed with 100% O2 with perfusate passing over an internally referenced pH-electrode fixed 12 cm above the stomach.
After 120 min of stabilisation the drugs were added directly to the serosal solution in the organ bath and after a further 60 min cumulative pentagastrin dose-response curves were started. Changes in acid secretion were monitored and the curves analysed according to Black et al., Br. J. Pharmacol., 1985, 86, 581.

The target in experiment [2] is T2, CCK1 receptors (Cavia porcellus, UniProt Q63931).
T2 construct: The pancreatata were homogenised in 40 ml ice-cold HEPES buffer using a polytron; from tissue; host or cells: pancreas membranes of male Dunkin Hartley guinea-pigs
T2 sequence (Q63931 1-430): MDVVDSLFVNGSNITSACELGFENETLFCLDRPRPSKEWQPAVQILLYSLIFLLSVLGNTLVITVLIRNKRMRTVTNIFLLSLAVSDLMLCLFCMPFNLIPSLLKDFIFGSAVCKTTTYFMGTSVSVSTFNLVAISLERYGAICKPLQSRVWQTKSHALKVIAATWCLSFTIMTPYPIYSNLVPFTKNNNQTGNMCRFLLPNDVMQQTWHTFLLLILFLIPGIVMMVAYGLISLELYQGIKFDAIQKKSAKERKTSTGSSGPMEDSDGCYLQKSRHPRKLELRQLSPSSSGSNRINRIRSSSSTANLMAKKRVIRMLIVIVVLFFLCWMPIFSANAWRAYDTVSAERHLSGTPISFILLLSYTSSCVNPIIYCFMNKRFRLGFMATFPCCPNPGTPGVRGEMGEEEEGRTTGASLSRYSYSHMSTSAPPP
The experiment in a line: CCK1 binding assay, guinea-pig pancreas membranes, [125I]-CCK8(S). The settings on record: [125I]-CCK8(S) 200 pM, 150 minutes at 21±3° C; for Ki: read-out: Guinea-Pig Pancreas CCK1 pKi (converted). As for the experimental part: The compounds of certain examples were also tested in a CCK1 binding assay as follows:
The pancreatata were removed from male guinea-pigs (200-300 g; Dunkin Hartley) and placed in ice-cold HEPES buffer (pH 7.2@21±3° C.). The pancreatata were homogenised in 40 ml ice-cold HEPES buffer using a polytron (Brinkmann, PT10, setting 10) 4×1 second. The homogenate was centrifuged at 39,800 g for 15 min at 4° C. The supernatant was discarded and the pellet re-suspended using a Teflon-in-glass homogeniser in 20 volumes of fresh buffer and re-centrifuged as above. The final pellet was re-suspended using a Teflon-in-glass homogeniser to a tissue concentration of 1 mg.ml^−1 (original wet weight), and filtered through a 500 μm pore-size Nytex mesh.
The membranes (400 μl; containing 0.375 μM PD134,308) were incubated for 150 minutes at 21±3° C. in a final volume of 0.5 ml with HEPES buffer containing [^125I]-CCK8 (S) (50 μl; 200 pM) and competing compound. Total and non-specific binding of [^125I]-CCK8 (S) were defined using 50 μl of buffer and 50μ of 100 nM L-364,718 respectively. The assay was terminated by rapid filtration through pre-soaked Whatman GF/B filters using a Brandell Cell Harvetser. The filters were washed (3×3 ml) with ice-cold 50 mM Tris HCl (pH 7.4@4° C.) and bound radioactivity was determined by counting (1 min) in a gamma counter.

Turning to `O=C(O)c1cccc(-c2nc(-c3nc(C4CCCCC4)[nH]c3COC34CC5CC(CC(C5)C3)C4)no2)c1` [Example 18, 3-{3-[5-(Adamantan-1-yloxymethyl)-2-cyclohexyl-1H-imidazol-4-yl]-[1,2,4]oxadiazol-5-yl}-benzoic acid], in experiment [1], the Kb is 2.4 nM. Besides, in experiment [2], the Ki is 501 nM.
On to “3-{2-[5-(2-Adamantan-1-yl-ethyl)-2-o-tolyl-1H-imidazol-4-yl]-[1,2,4]oxadiazol-3-yl}-benzoic acid [Example 5]”, for which, in experiment [1], the “Rat stomach pKB” value is listed as 5.76. Besides, the “Guinea-Pig Pancreas CCK1 pKi” value in experiment [2] was determined as 6.40.
In the same order, the values of “3-{2-[5-(Adamantan-1-yloxymethyl)-2-cyclohexyl-1H-imidazol-4-yl]-[1,2,4]oxadiazol-3-yl}-benzoic acid [Example 3]” are 8.66 and 6.37.
In the same order, the values of “3-{5-[5-(Adamantan-1-yloxymethyl)-2-cyclohexyl-3-hydroxy-1H-imidazol-4-yl]-[1,3,4]oxadiazol-2-yl}-benzoic acid [Example 17]” are 6.90 and 5.23.
The like results for “3-{5-[5-(Adamantan-1-yloxymethyl)-2-cyclohexyl-1H-imidazol-4-yl]-[1,3,4]triazol-3-yl}-benzoic acid [Example 10]” were, in that order, 8.28 and 6.41.
`O=C(O)c1cccc(-c2csc(-c3nc(C4CCCCC4)[nH]c3COC34CC5CC(CC(C5)C3)C4)n2)c1` [Example 6, 3-{2-[5-(Adamantan-1-yloxymethyl)-2-cyclohexyl-1H-imidazol-4-yl]-thiazol-4-yl}-benzoic acid]: the Kb in experiment [1] was 2.69 nM. For the same compound, in experiment [2], the Ki is 1150 nM.
In the same order, the values of `O=C(O)c1cccc(-c2nnc(-c3nc(C4CCCCC4)[nH]c3COC34CC5CC(CC(C5)C3)C4)o2)c1` [Example 9, 3-{5-[5-(Adamantan-1-yloxymethyl)-2-cyclohexyl-1H-imidazol-4-yl]-[1,3,4]oxadiazol-2-yl}-benzoic acid] are 2.45 nM and 550 nM.
In the same order, the values of `O=C(O)c1cccc(-c2nnc(-c3nc(C45CCC(CC4)CC5)[nH]c3COC34CC5CC(CC(C5)C3)C4)o2)c1` [Example 16, 3-{5-[5-(Adamantan-1-yloxymethyl)-2-bicyclo[2.2.2]oct-1-yl-1H-imidazol-4-yl]-[1,3,4]oxadiazol-2-yl}-benzoic acid] are 1.91 nM and 468 nM.
The like results for `O=C(O)c1cncc(-c2nnc(-c3nc(C4CCCCC4)[nH]c3COC34CC5CC(CC(C5)C3)C4)o2)c1` [Example 13, 5-{5-[5-(Adamantan-1-yloxymethyl)-2-cyclohexyl-1H-imidazol-4-yl]-[1,3,4]oxadiazo-2-yl}-nicotinic acid] were, in that order, 22.9 nM and 3240 nM.
As for `O=C(O)c1cccc(-c2coc(-c3nc(C4CCCCC4)[nH]c3COC34CC5CC(CC(C5)C3)C4)n2)c1` [Example 1, 3-{2-[5-(Adamantan-1-yloxymethyl)-2-cyclohexyl-1H-imidazol-4-yl}-oxazol-4-yl}-benzoic acid], in experiment [1], the Kb was 7.94 nM. For the same compound, in experiment [2], the Ki was 741 nM.
The like results for `O=C(O)c1cccc(-c2nnc(-c3nc(C4CCCCC4)[nH]c3COC34CC5CC(CC(C5)C3)C4)s2)c1` [Example 8, 3-{5-[5-(Adamantan-1-yloxymethyl)-2-cyclohexyl-1H-imidazol-4-yl]-[1,3,4]thiadiazol-2-yl}-benzoic acid] were, in that order, 3.72 nM and 135 nM.
In the same order, the values of `O=C(O)c1cccc(-c2c[nH]c(-c3nc(C4CCCCC4)[nH]c3COC34CC5CC(CC(C5)C3)C4)n2)c1` [Example 7, 3-[5′-(Adamantan-1-yloxymethyl)-2′cyclohexyl-1H,1H′-[2,4′]biimidazolyl-4-yl]-benzoic acid] are 97.7 nM and 269 nM.
As to `O=C(O)c1cccc(C2CN=C(c3nc(C4CCCCC4)[nH]c3COC34CC5CC(CC(C5)C3)C4)O2)c1` (centres unmarked) [Example 11, 3-{2-[5-(Adamantan-1-yloxymethyl)-2-cyclohexyl-1H-imidazol-4-yl]-4,5-dihydro-oxazol-5-yl}-benzoic acid], the Kb in experiment [1] was 191 nM.
On to “2-{5-[5-(Adamantan-1-yloxymethyl)-2-cyclohexyl-1H-imidazol-2-yl]-[1,3,4]oxadiazol-2-yl}-isonicotinic acid [Example 14]”, for which the “Rat stomach pKB” value in experiment [1] came out at 5.98. The “Guinea-Pig Pancreas CCK1 pKi” value in experiment [2] came to 5.01.
`Cc1ccccc1-c1nc(-c2nc(-c3cccc(C(=O)O)c3)co2)c(CCC23CC4CC(CC(C4)C2)C3)[nH]1` [Example 2, 3-{2-[5-(2-Adamantan-1-yl-ethyl)-2-o-tolyl-1H-imidazol-4-yl]oxazol-4-yl}-benzoic acid]: in experiment [1], the Kb is 18.2 nM. Further, the Ki in experiment [2] was 1170 nM.
With `O=C(O)c1cccc(-c2nnc(-c3nc(C4CCCCC4)[nH]c3COC34CC5CC(CC(C5)C3)C4)o2)n1` [Example 12, 6-{5-[5-(Adamantan-1-yloxymethyl)-2-cyclohexyl-1H-imidazol-4-yl]-[1,3,4]oxadiazol-2-yl}-pyridine-2-carboxylic acid], in experiment [2], the Ki is 2140 nM.
Take `O=C(O)c1cccc(-c2noc(-c3nc(C4CCCCC4)[nH]c3CCC34CC5CC(CC(C5)C3)C4)n2)c1` [Example 4, 3-{2-[5-(2-Adamantan-1-yl-ethyl)-2-cyclohexyl-1H-imidazol-4-yl]-[1,2,4]oxadiazol-3-3-yl}-benzoic acid]: the Kb in experiment [1] is 6.92 nM. Also, the Ki in experiment [2] is 339 nM.
